Measurements taken from the supplement of paper PMC8967900.

Key:
Experiment in all cases: selective drug sensitivity score (sDSS, relative to normal bone marrow) (sDSS (score)); higher = more potent and effective on the cell line relative to normal bone marrow cells
Conditions in all cases: 72 h
ALL-PO = test system: ALL-PO
RPMI-8402 = test system: RPMI-8402
TMD5 = test system: TMD5
P30-OHKUBO = test system: P30-OHKUBO
MN-60 = test system: MN-60
COG-LL-332h = test system: COG-LL-332h
HPB-ALL = test system: HPB-ALL
CCRF-HSB2 = test system: CCRF-HSB2
697 = test system: 697
KOPN-8 = test system: KOPN-8
ALL-SIL = test system: ALL-SIL
COG-LL-319h = test system: COG-LL-319h
PF-382 = test system: PF-382
380 = test system: 380
MHH-CALL-2 = test system: MHH-CALL-2
COG-LL-394h = test system: COG-LL-394h
MHH-CALL-4 = test system: MHH-CALL-4
KARPAS-45 = test system: KARPAS-45
NALM-6 = test system: NALM-6
NALM-16 = test system: NALM-16
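Further: ALL cell lines in 384-well plates, five doses spanning 10,000-fold, each plate scaled between vehicle and 100 µmol/L benzalkonium chloride controls, sDSS an adapted area-under-curve metric.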

SMILES | selective drug sensitivity score (ALL-PO) | selective drug sensitivity score (RPMI-8402) | selective drug sensitivity score (TMD5) | selective drug sensitivity score (P30-OHKUBO) | selective drug sensitivity score (MN-60) | selective drug sensitivity score (COG-LL-332h) | selective drug sensitivity score (HPB-ALL) | selective drug sensitivity score (CCRF-HSB2) | selective drug sensitivity score 697 | selective drug sensitivity score (KOPN-8) | selective drug sensitivity score (ALL-SIL) | selective drug sensitivity score (COG-LL-319h) | selective drug sensitivity score (PF-382) | selective drug sensitivity score 380 | selective drug sensitivity score (MHH-CALL-2) | selective drug sensitivity score (COG-LL-394h) | selective drug sensitivity score (MHH-CALL-4) | selective drug sensitivity score (KARPAS-45) | selective drug sensitivity score (NALM-6) | selective drug sensitivity score (NALM-16)
CN1CCN(C2CCC(n3cc(-c4ccc(Oc5ccccc5)cc4)c4c(N)ncnc43)CC2)CC1 (stereo not given) (top concentration 10000 nM) | 9.52 | 3.52 | 10.2 | 8.52 | 1.32 | 6.42 | 0.32 | 29.1 | 3.32 | 5.02 | 16.3 | 2.42 | 7.12 | -0.68 | 3.12 | 4.42 | 0.52 | 4.12 | 3.42 | 0.72
CC[C@H](CC#N)OC(=O)N[C@@H](C)c1cccc(NC(=O)Nc2ccc(-c3cnco3)c(OC)c2)c1 [AVN944] (top concentration 10000 nM) | 5.94 | 11.9 | 2.74 | 13.8 | 3.64 | 18 | 5.64 | 14.5 | 17.5 | 19.5 | 6.64 | 12.3 | 10.2 | 18.4 | 9.54 | -2.06 | 2.44 | 8.84 | 15.5 | 0.24
COc1ccc(-c2ccc3c(N4CCOC[C@@H]4C)nc(N4CCOC[C@@H]4C)nc3n2)cc1CO [AZD8055] (top concentration 10000 nM) | 10.6 | 7.78 | -1.62 | 16.6 | 7.98 | 8.08 | 0.18 | 10.1 | 16.8 | 22.6 | 6.78 | 5.28 | 9.18 | 15.8 | 6.08 | -2.42 | 2.88 | 4.78 | 3.68 | 1.78
COc1cccc2c1C(=O)c1c(O)c3c(c(O)c1C2=O)C[C@@](O)(C(=O)CO)C[C@@H]3O[C@H]1C[C@H](N)[C@@H](O)[C@H](C)O1 [Epirubicin] (top concentration 1000 nM) | -1.78 | 6.62 | 1.02 | 6.92 | -0.98 | 11.3 | 0.12 | 14.8 | 10.1 | 9.42 | 0.42 | 16.3 | 2.12 | 13.8 | 6.12 | 6.82 | 6.92 | -0.28 | 3.82 | -0.28
CO[C@H]1C[C@@H]2CC[C@@H](C)[C@@](O)(O2)C(=O)C(=O)N2CCCC[C@H]2C(=O)O[C@H]([C@H](C)C[C@@H]2CC[C@@H](OCCO)[C@H](OC)C2)CC(=O)[C@H](C)/C=C(\C)[C@@H](O)[C@@H](OC)C(=O)[C@H](C)C[C@H](C)/C=C/C=C/C=C/1C [Everolimus] (top concentration 100 nM) | 8.9 | -0.7 | -3.8 | 2 | 0.5 | 4.5 | -5.3 | 4.8 | 9.3 | 19.6 | -0.2 | 10.7 | 1.9 | 16.5 | 4.2 | -4.9 | -1.5 | 0.2 | -3.8 | -2
CON(C)C(=O)N1N=C(c2cc(F)ccc2F)S[C@@]1(CCCN)c1ccccc1 [Filanesib] (top concentration 1000 nM) | 6.7 | 18.9 | 10.5 | 9.9 | 7.1 | 21.1 | 20.3 | 22.5 | 23 | 9.8 | 16.6 | 23.4 | 12.5 | 18.5 | 16.4 | 8.7 | 7.4 | 20.9 | 21 | 16.6
CN(Cc1cnc2nc(N)nc(N)c2n1)c1ccc(C(=O)N[C@@H](CCC(=O)O)C(=O)O)cc1 [Methotrexate] (top concentration 5000 nM) | -0.12 | 20.2 | -0.42 | -0.42 | 14.6 | 11.3 | 5.28 | 14 | 0.58 | -0.12 | 15 | 20.1 | 11.7 | 17.8 | 13.8 | 1.68 | 9.68 | 11.5 | 16.4 | 6.68
CC[C@@]1(O)C(=O)OCc2c1cc1n(c2=O)Cc2cc3c(CN(C)C)c(O)ccc3nc2-1 [Topotecan] (top concentration 10000 nM) | 17.9 | 19.4 | 14.3 | 18.9 | 4.28 | 23.9 | 11.2 | 23.3 | 18.9 | 23.4 | 24.9 | 18.6 | 18.2 | 27.1 | 26.6 | 11.4 | 16.5 | -0.22 | 17.1 | 7.18
O=c1[nH]c(=O)n([C@H]2C[C@H](O)[C@@H](CO)O2)cc1C(F)(F)F [Trifluridine] (top concentration 10000 nM) | 20 | 15.5 | -1.84 | 11.9 | 3.66 | 7.46 | 4.66 | -1.84 | 17.9 | 17.4 | 13.7 | 20.2 | 4.16 | 14 | 9.96 | 2.66 | 2.26 | -1.84 | 15 | 4.06
Cc1sc2c(c1C)C(c1ccc(Cl)cc1)=N[C@@H](CC(=O)NCCCCNC(=O)COc1cccc3c1C(=O)N(C1CCC(=O)NC1=O)C3=O)c1nnc(C)n1-2 (stereo not given in full) [dBET1] (top concentration 10000 nM) | -5.58 | -6.68 | -13.8 | 2.82 | -8.08 | -8.98 | -12.7 | 2.12 | -0.38 | 7.82 | -7.08 | 3.62 | -8.28 | -4.58 | 4.92 | -2.78 | 5.42 | -7.68 | -4.78 | -4.48
